Measurements reported in patent US20260263425A1, “USE OF COMPOSITION CONTAINING CANDESARTAN OR AZILSARTAN” (GACHON UNIVERSITY OF INDUSTRY-ACADEMIC COOPERATION …, priority 2023, published 2026).

Assays:
[1] = test system: AKT PH domain; test: Insulin-stimulated membrane localization of AKT PH domain in palmitic acid-treated HepG2 cells; format: cell-based, Human; settings: 100 nM insulin 15 min, AKT PH mCherry
Method: One mechanism of insulin resistance is that, in the state of obesity and diabetes, an increase in the concentration of calcium in the cytoplasm leads to calcium binding to PI(3, 4, 5)P3 present in the cell membrane, generating Ca^2+-PI(3, 4, 5)P3, which inhibits binding to the PH domain of AKT and suppresses AKT protein activity, thereby inducing insulin resistance. Accordingly, it was evaluated whether azilsartan and candesartan, which were shown in the above examples to attenuate palmitic acid-induced intracellular Ca^2+ overload, regulate the intracellular localization of the AKT PH domain, which functions as a biosensor for PI(3, 4, 5)P3.
(§1) Specifically, CHO cells or HepG2 cells were transfected with cDNA encoding hAKT PHD (residues 1 to 144) using Lipofectamine (Life Technologies). To monitor the intracellular localization of endogenous AKT, liver sections were antigen activated with 10 mM Tris/HCl (pH 9.0) for 20 minutes, treated with serum-free protein blocking solution (DAKO) for 30 minutes, and permeabilized with 0.5% Tween 20 for 15 minutes. The liver sections were then incubated with anti-AKT PHD antibody (SKB1, #05-591, Sigma-Aldrich) and FITC-conjugated secondary antibody. After mounting, the liver sections were imaged with an LSM 980 laser scanning confocal microscope (Carl Zeiss), and the images were analyzed using ZEN software (Carl Zeiss).
When administering azilsartan or candesartan to cells, the impairment induced by palmitic acid was recovered.

[2] = test system: HepG2 cells; test: Intracellular Ca2+ level and lipid accumulation in palmitic acid-treated HepG2 cells (confocal microscopy, fluorescent dyes); format: cell-based, Human; settings: for lipid accumulation: palmitic acid-treated HepG2, BODIPY; for fluorescence intensity for intracellular Ca2+: palmitic acid-treated HepG2, Calbryte 630 AM
Method: Subsequently, to determine whether ARBs can regulate intracellular Ca^2+ levels and lipid accumulation in HepG2 cells treated with palmitic acid, the effects of ARBs were evaluated using confocal microscopy and the fluorescent dyes Calbryte 630 AM (for intracellular Ca^2+) and BODIPY (for lipids).
Specifically, for intracellular Ca^2+ concentration and lipid accumulation, HepG2 cells were plated on slide glasses, treated with 0.5 mM palmitic acid for 16 hours, and incubated with 4 μM Fura-2-AM (Teflabs), […] Calbryte 630 AM, or […] BODIPY in PBS for 30 minutes at 37° C. in the dark. The cells were then washed with PBS for 10 minutes. Subsequently, the cells were counterstained with 4,6-diamidino-2-phenylindole (DAPI) to visualize nuclei. After mounting, the stained slides were imaged using a Zeiss LSM 700 or Zeiss LSM 980 laser scanning confocal microscope (Carl Zeiss) and analyzed using ZEN 2010 Software (Carl Zeiss). Intracellular Ca^2+ was quantified from the microscopic images using the NIH ImageJ software (https://imagej.nih.gov/ij/, 1997-2017). […]

[3] = test system: HFD-fed mice; test: Postprandial phosphorylation of AKT and downstream substrates in HFD-fed mice; format: in vivo; settings: fasted overnight, re-fed HFD 4 hours
Method: Tissues and cells were lysed using a modified RIPA buffer (50 mM Tris-HCl pH 7.4, 1% Triton X-100, 150 mM NaCl, 1 mM EDTA; Cell Signaling Technology) freshly supplemented with 1 mM Na3VO4, […], and protease inhibitor cocktail (Complete Mini, Roche). Equal amounts of proteins were separated on 4-12% gels and electrophoretically transferred to polyvinylidene difluoride (PVDF) membranes. Immunoblots were visualized with horseradish peroxidase-conjugated secondary antibodies and enhanced chemiluminescence kits (ECL kits; GE Healthcare Life Sciences) using a charge-coupled device camera (Amersham ImageQuant 800). To elucidate the role of candesartan on insulin signaling in vivo, mice were fasted overnight and then re-fed an HFD for 4 hours, and postprandial phosphorylation of AKT and its downstream signaling substrates FOXO1A, FOXO3A, GSK3B, and AS160 was measured.

[4] = test system: HepG2 cells; test: Insulin-stimulated phosphorylation of Akt and downstream molecules in palmitic acid-treated HepG2 cells (immunoblot); format: cell-based, Human; settings: HepG2, 0.5 mM palmitic acid 16 h, ARB 5, 10, 20 μM; dose-dependent
Method: Tissues and cells were lysed using a modified RIPA buffer (50 mM Tris-HCl pH 7.4, 1% Triton X-100, 150 mM NaCl, 1 mM EDTA; Cell Signaling Technology) freshly supplemented with 1 mM Na3VO4, […], and protease inhibitor cocktail (Complete Mini, Roche). Equal amounts of proteins were separated on 4-12% gels and electrophoretically transferred to polyvinylidene difluoride (PVDF) membranes. Immunoblots were visualized with horseradish peroxidase-conjugated secondary antibodies and enhanced chemiluminescence kits (ECL kits; GE Healthcare Life Sciences) using a charge-coupled device camera (Amersham ImageQuant 800). Specifically, nine FDA-approved ARBs (losartan, eprosartan, fimasartan, irbesartan, olmesartan, telmisartan, valsartan, azilsartan, and candesartan) commonly prescribed for the treatment of hypertension in human patients were administered to HepG2 cells at various concentrations (5 μM, 10 μM, and 20 μM) in combination with 0.5 mM palmitic acid for 16 hours. Then, the insulin-stimulated phosphorylation of the key insulin signaling molecule Akt and its downstream signaling molecules GSK3β and FOXO3 was investigated. The results of Example 1 indicate that azilsartan and candesartan have beneficial off-target effects on insulin signaling and intracellular Ca^2+ homeostasis that are distinct from their known effects as angiotensin receptor blockers. […]

[5] = test system: AKT PH domain; test: Insulin-stimulated membrane localization of AKT PH domain in PMA-treated CHO-IR cells; format: cell-based, Chinese hamster
Method: as §1, with “Zeiss). Similarly, in phorbol myristate acetate (PMA)-treated Chinese hamster ovary-insulin receptor (CHO-IR) cells, it was confirmed that insulin-stimulated membrane localization of the AKT PH domain was rescued by treatment with azilsartan or candesartan (FIG. 3b).” for “Zeiss).”

| SMILES | palmitic acid-induced impairment of insulin-stimulated membrane localization of the AKT PH domain [1] | lipid accumulation [2] | fluorescence intensity for intracellular Ca2+ [2] | postprandial phosphorylation of AKT, FOXO1A, FOXO3A, GSK3B, and AS160, increase compared to the control group [3] | insulin-stimulated phosphorylation of Akt, GSK3B, and FOXO3 [4] | insulin-stimulated membrane localization of the AKT PH domain [5] |
| --- | --- | --- | --- | --- | --- | --- |
| CCCCC1=NC2(CCCC2)C(=O)N1Cc1ccc(-c2ccccc2-c2nnn[nH]2)cc1 [irbesartan] | did not rescue | did not significantly affect | did not significantly affect | – | – | – |
| CCOc1nc2cccc(C(=O)O)c2n1Cc1ccc(-c2ccccc2-c2nnn[nH]2)cc1 [candesartan] | – | – | – | 4- to 10 fold | – | – |
| CCCCc1nc(Cl)c(CO)n1Cc1ccc(-c2ccccc2-c2nn[nH]n2)cc1 [losartan] | did not rescue | did not significantly affect | did not significantly affect | – | – | – |
| CCCc1nc2c(C)cc(-c3nc4ccccc4n3C)cc2n1Cc1ccc(-c2ccccc2C(=O)O)cc1 [telmisartan] | did not rescue | did not significantly affect | did not significantly affect | – | – | – |
| CCCCc1ncc(/C=C(\Cc2cccs2)C(=O)O)n1Cc1ccc(C(=O)O)cc1 [eprosartan] | did not rescue | did not significantly affect | did not significantly affect | – | – | – |
| CCOc1nc2cccc(C(=O)O)c2n1Cc1ccc(-c2ccccc2-c2nc(=O)o[nH]2)cc1 [azilsartan] | recovered | significantly reduced | significantly reduced | – | completely restored | rescued |
